Test results taken from US20070092577A1, “Dietary calcium for reducing the production of reactive oxygen species” (University of Tennessee Research Foundation, priority 2005, published 2007).

Legend:
cyclin A = assay: Cyclin A expression in 3T3-L1 adipocytes; type: cell-based, murine; settings: added to glucose 30 mmol/L, 48 hours; nifedipine 10 μmol/L
Experimental: (§1) 3T3-L1 preadipocytes were incubated at a density of 8000 cells/cm^2 (10 cm^2 dish) and grown in Dulbecco's modified Eagle's medium (DMEM) containing 10% FBS and antibiotics (adipocyte medium) at 37° C. in 5% CO2 in air. Confluent preadipocytes were induced to differentiate with a standard differentiation medium consisting of DMEM-F 10 (1:1, vol/vol) medium supplemented with 1% FBS, 1 μM dexamethasone, IBMX (0.5 mM) and antibiotics (1% Penicillin-Streptomycin). Preadipocytes were maintained in this differentiation medium for 3 days and subsequently cultured in adipocyte medium. Cultures were re-fed every 2-3 days to allow 90% of cells to reach full differentiation before conducting chemical treatment. Chemicals were freshly diluted in adipocyte medium before treatment. […] Cell viability was measured via trypan blue exclusion. Adipocyte 18s, cyclin A, NADPH oxidase, and UCP2 were quantitatively measured using a Smart Cycler Real Time PCR System (Cepheid, Sunnyvale, Calif.) with a TaqMan 1000 Core Reagent Kit (Applied Biosystems, Branchburg, N.J.). […] Reactions of quantitative RT-PCR for standards and unknown samples were also performed according to the instructions of Smart Cycler System (Cepheid, Sunnyvale, Calif.) and TaqMan Real Time PCR Core Kit (Applied Biosystems, Branchburg, N.J.). The mRNA quantitation for each sample was further normalized using the corresponding 18s quantitation.

[1] = system: ROS production in cultured 3T3-L1 adipocytes; assay: ROS production in cultured adipocytes (H2-DCFDA); type: cell-based, murine; settings: 48 hours
Experimental: 3T3-L1 preadipocytes were incubated at a density of 8000 cells/cm^2 (10 cm^2 dish) and grown in Dulbecco's modified Eagle's medium (DMEM) containing 10% FBS and antibiotics (adipocyte medium) at 37° C. in 5% CO2 in air. Confluent preadipocytes were induced to differentiate with a standard differentiation medium consisting of DMEM-F 10 (1:1, vol/vol) medium supplemented with 1% FBS, 1 μM dexamethasone, IBMX (0.5 mM) and antibiotics (1% Penicillin-Streptomycin). Preadipocytes were maintained in this differentiation medium for 3 days and subsequently cultured in adipocyte medium. Cultures were re-fed every 2-3 days to allow 90% of cells to reach full differentiation before conducting chemical treatment. Chemicals were freshly diluted in adipocyte medium before treatment. Cells were washed with fresh adipocyte medium, re-fed with medium containing the different treatments, and incubated at 37° C. in 5% CO2 in air before analysis. Cell viability was measured via trypan blue exclusion. […] Cells were loaded with H2-DCFDA (2 μmol/L) 30 minute before the end of the incubation period (48 h). After washing twice with PBS, cells were scraped and disrupted by sonication on ice (20s). Fluorescence (emission 543 nm or 527 nm) and DNA content were then measured as described previously. The intensity of fluorescence was expressed as arbitary units per ng DNA.

3T3-L1 adipocytes = assay: DNA synthesis / cell proliferation (CyQUANT); type: cell-based, murine; settings: 48 hours
Experimental: 3T3-L1 preadipocytes were incubated at a density of 8000 cells/cm^2 (10 cm^2 dish) and grown in Dulbecco's modified Eagle's medium (DMEM) containing 10% FBS and antibiotics (adipocyte medium) at 37° C. in 5% CO2 in air. Confluent preadipocytes were induced to differentiate with a standard differentiation medium consisting of DMEM-F 10 (1:1, vol/vol) medium supplemented with 1% FBS, 1 μM dexamethasone, IBMX (0.5 mM) and antibiotics (1% Penicillin-Streptomycin). Preadipocytes were maintained in this differentiation medium for 3 days and subsequently cultured in adipocyte medium. Cultures were re-fed every 2-3 days to allow 90% of cells to reach full differentiation before conducting chemical treatment. Chemicals were freshly diluted in adipocyte medium before treatment. Cells were washed with fresh adipocyte medium, re-fed with medium containing the different treatments, and incubated at 37° C. in 5% CO2 in air before analysis. Cell viability was measured via trypan blue exclusion. Cells were plated in DMEM with different treatment in duplicate in 96-well plates. After 48 h, a CyQUANT Cell Proliferation Kit (Molecular Probes, Eugene, Oreg.) was used following the manufacturer's protocol a microplate fluorometer (Packard Instrument Company, Inc., Downers Grove, Ill.) was used to measure CyQUANT fluorescence. Cell viability was determined by Trypan blue exclusion examination.

NADPH oxidase = NADPH oxidase expression in 3T3-L1 adipocytes; type: cell-based, murine; settings: added to glucose 30 mmol/L, 48 hours; nifedipine 10 μmol/L
Experimental: as §1

[2] = system: Mitochondrial potential in cultured wild-type 3T3-L1 adipocytes; assay: Mitochondrial membrane potential (JC-1); type: cell-based, murine; settings: GDP 100 μmol/L with H2O2 100 nmol/L, 48 hours
Experimental: 3T3-L1 preadipocytes were incubated at a density of 8000 cells/cm^2 (10 cm^2 dish) and grown in Dulbecco's modified Eagle's medium (DMEM) containing 10% FBS and antibiotics (adipocyte medium) at 37° C. in 5% CO2 in air. Confluent preadipocytes were induced to differentiate with a standard differentiation medium consisting of DMEM-F 10 (1:1, vol/vol) medium supplemented with 1% FBS, 1 μM dexamethasone, IBMX (0.5 mM) and antibiotics (1% Penicillin-Streptomycin). Preadipocytes were maintained in this differentiation medium for 3 days and subsequently cultured in adipocyte medium. Cultures were re-fed every 2-3 days to allow 90% of cells to reach full differentiation before conducting chemical treatment. Chemicals were freshly diluted in adipocyte medium before treatment. […] Cell viability was measured via trypan blue exclusion.
Mitochondrial membrane potential was analyzed fluorometrically with a lipophilic cationic dye JC-1 (5,5′,6,6′-tetrachloro-1,1′,3,3′-tetraethylbenzimidazol carbocyanine iodide) using a mitochondrial potential detection kit (Biocarta, San Diego, Calif.). Mitochondrial potential was determined as the ratio of red fluorescence (excitation 550 nm, emission 600 mn) and green fluorescence (excitation 485 nm, emission 535 nm) using a fluorescence microplate reader.

TNFα [3] = assay: TNFα expression in differentiated 3T3-L1 adipocytes; type: cell-based, mouse; settings: nifedipine 10 μmol/L alone, 48 h
Experimental: 3T3-L1 pre-adipocytes were incubated at a density of 8000 cells/cm^2 (10 cm^2 dish) and grown in Dulbecco's modified Eagle's medium (DMEM) containing 10% FBS and antibiotics (adipocyte medium) at 37° C. in 5% CO2 in air. Confluent pre-adipocytes were induced to differentiate with a standard differentiation medium consisting of DMEM-F10 (1:1, vol/vol) medium supplemented with 1% fetal bovine serum (FBS), 1 μM dexamethasone, isobutylmethylxanthine (IBMX) (0.5 mM) and antibiotics (1% Penicillin-Streptomycin). Pre-adipocytes were maintained in this differentiation medium for 3 days and subsequently cultured in adipocyte medium. Cultures were re-fed every 2-3 days to allow 90% cells to reach fully differentiation before conducting chemical treatment. […] Cell viability was measured via trypan blue exclusion. Adipocyte and muscle 18s, TNFα, IL-6, IL-8, IL-15 and adiponectin were quantitatively measured using a smart cycler real-time PCR system (Cepheid, Sunnyvale, Calif.) with a TaqMan 1000 Core Reagent Kit (Applied Biosystems, Branchburg, N.J.). […] Reactions of quantitative RT-PCR for standards and unknown samples were also performed according to the instructions of Smart Cycler System (Cepheid, Sunnyvale, Calif.) and TaqMan Real Time PCR Core Kit (Applied Biosystems, Branchburg, N.J.). The mRNA quantitation for each sample was further normalized using the corresponding 18s quantitation.

IL-15 = IL-15 expression in differentiated Zen-bio human adipocytes; type: cell-based; settings: 10 nmol/L 1α, 25-(OH)2-D3 or 10 μmol/L nifedipine, 48 h; p=0.473
Experimental: (§2) Human pre-adipocytes used in this study were supplied by Zen-Bio (Research Triangle, N.C.). […] The cells are isolated from the stromal vascular fraction of human subcutaneous adipose tissue and differentiated in vitro as follows: […] Preadipocytes were maintained in this differentiation medium for 3 days and subsequently cultured in adipocyte medium in which BRL49653 and MIX were omitted. Cultures were re-fed every 2-3 days till fully differentiated. Cells were incubated in serum free medium overnight before chemical treatment. Chemicals were freshly diluted in adipocyte medium before treatment. […] Cell viability was measured via trypan blue exclusion. Adipocyte and muscle 18s, TNFα, IL-6, IL-8, IL-15 and adiponectin were quantitatively measured using a smart cycler real-time PCR system (Cepheid, Sunnyvale, Calif.) with a TaqMan 1000 Core Reagent Kit (Applied Biosystems, Branchburg, N.J.). […] Reactions of quantitative RT-PCR for standards and unknown samples were also performed according to the instructions of Smart Cycler System (Cepheid, Sunnyvale, Calif.) and TaqMan Real Time PCR Core Kit (Applied Biosystems, Branchburg, N.J.). The mRNA quantitation for each sample was further normalized using the corresponding 18s quantitation.

adiponectin = assay: Adiponectin expression in differentiated Zen-bio human adipocytes; type: cell-based; settings: 10 nmol/L 1α, 25-(OH)2-D3 or 10 μmol/L nifedipine, 48 h; p=0.377
Experimental: as §2

IL-6 = IL-6 expression in RAW 264 macrophages; type: cell-based; settings: added to calcitriol; macrophages cultured alone
Experimental: (§3) RAW 264 macrophages and 3T3-L1 preadipocytes (American Type Culture Collection) were incubated at a density of 8000 cells/cm2 (10 cm2 dish) and grown in Dulbecco's modified Eagle's medium (DMEM) containing 10% FBS and antibiotics (adipocyte medium) at 37° C. in 5% CO2 in air. Confluent 3T3-L1 preadipocytes were induced to differentiate with a standard differentiation medium consisting of DMEM-F10 (1:1, vol/vol) medium supplemented with 1% FBS, 1 μM dexamethasone, IBMX (0.5 mM) and antibiotics (1% Penicillin-Streptomycin). Preadipocytes were maintained in this differentiation medium for 3 days and subsequently cultured in adipocyte medium. Cultures were re-fed every 2-3 days to allow 90% cells to reach fully differentiation for 3T3-L1 adipocytes or grow to a confluence for RAW 264 before conducting chemical treatment.
(§4) Human adipocytes (Zen-Bio, Inc.), 3T3-L1 adipocytes, RAW264 macrophages were obtained and co-cultured by using transwell inserts with 0.4 μm porous membranes (Corning) to separate adipocytes and macrophages. All data are expressed as mean±SEM. Data were evaluated for statistical significance by analysis of one-way or two-way variance (ANOVA; means with different letter differ, p<0.05).
(§5) Adipocyte and muscle 18s, CD14, TNFα, MIP, M-CSF, IL-6 and MCP-1 were quantitatively measured using a Smart Cycler Real Time PCR System (Cepheid, Sunnyvale, Calif.) with a TaqMan 1000 Core Reagent Kit (Applied Biosystems, Branchburg, N.J.). The primers and probe sets were obtained from Applied Biosystems TaqMan® Assays-on-Demand™ Gene Expression primers and probe set collection according to manufacture's instruction. […] Reactions of quantitative RT-PCR for standards and unknown samples were also performed according to the instructions of Smart Cycler System (Cepheid, Sunnyvale, Calif.) and TaqMan Real Time PCR Core Kit (Applied Biosystems, Branchburg, N.J.). The mRNA quantitation for each sample was further normalized using the corresponding 18s quantitation.

TNFα [4] = assay: TNFα expression in RAW 264 macrophages; type: cell-based; settings: added to calcitriol; macrophages cultured alone
Experimental: as §3, §4, §5

[5] = added to glucose 30 mmol/L, nifedipine 10 μmol/L

Nc1nc2c(ncn2[C@@H]2O[C@H](COP(=O)(O)OP(=O)(O)O)[C@@H](O)[C@H]2O)c(=O)[nH]1 [GDP]
effect on glucose stimulated cyclin A expression (cyclin A): augmented | increase of ROS production compared to H2O2 treatment alone ([1]; GDP 100 μmol/L with H2O2 100 nmol/L, p<0.01): 24% | effect on high glucose induced ROS production [1, 5]: further stimulated ROS production compared to glucose alone | augmentation of the stimulation of cell proliferation by H2O2 (3T3-L1 adipocytes; GDP 100 μmol/L with H2O2 100 nmol/L, p<0.005): 183% | effect on glucose induced DNA synthesis (3T3-L1 adipocytes; [5]): augmented | effect on NADPH oxidase expression (NADPH oxidase): suppressed | augmentation of the H2O2 effect on mitochondrial potential [2]: 10%

COC(=O)C1=C(C)NC(C)=C(C(=O)OC)C1c1ccccc1[N+](=O)[O-] [nifedipine]
inhibition of H2O2 induced ROS production ([1]; nifedipine 10 μmol/L with H2O2 100 nmol/L, p<0.003): 25% | effect on TNFα expression, alone (TNFα [3]): no effect | effect on IL-15 expression (IL-15): no effect | effect on adiponectin expression (adiponectin): no effect

O=[N+]([O-])c1ccc(O)c([N+](=O)[O-])c1 [DNP]
effect on calcitriol stimulated IL-6 expression (IL-6): blocked | effect on calcitriol stimulated TNFα expression (TNFα [4]): blocked
